Source: the supplement of paper PMC10733146

Columns and labels:
Assay in all cases: viability relative to DMSO control (fraction); higher = less drug effect (more viable cells)
Settings in all cases: 48 h
[1] = system: primary AML patient cells (S019)
Summary of the method: (§1)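 Using 384-well plates with compounds already plated at five concentrations, one well per concentration, 4 × 10^4 primary mononuclear tumour cells were added per well. Cells were Ficoll-isolated from blood or bone marrow or came from processed lymph node, fresh or cryopreserved. They were kept for 48 h at 37 °C and 5% CO2 in RPMI-1640 supplemented with penicillin/streptomycin, L-glutamine and human serum, and viability was read as CellTiter-Glo luminescence relative to the median of 16 inner DMSO wells.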

[2] = system: primary MCL patient cells (S041)
Summary of the method: as §1

[3] = system: primary CLL patient cells (S031)
Summary of the method: as §1

[4] = system: primary AML patient cells (S007)
Summary of the method: as §1

[5] = system: primary AML patient cells (S027)
Summary of the method: as §1

[6] = system: primary DLBCL patient cells (S082)
Summary of the method: as §1

[7] = system: primary AML patient cells (S091)
Summary of the method: as §1

[8] = system: primary AML patient cells (S085)
Summary of the method: as §1

[9] = system: primary AML patient cells (S037)
Summary of the method: as §1

[10] = system: primary T-NHL patient cells (S058)
Summary of the method: as §1

[11] = system: primary AML patient cells (S089)
Summary of the method: as §1

[12] = system: primary AML patient cells (S060)
Summary of the method: as §1

[13] = system: primary B-PLL patient cells (S016)
Summary of the method: as §1

[14] = system: primary AML patient cells (S071)
Summary of the method: as §1

[15] = system: primary DLBCL patient cells (S049)
Summary of the method: as §1

[16] = system: primary ALL patient cells (S088)
Summary of the method: as §1

[17] = system: primary DLBCL patient cells (S076)
Summary of the method: as §1

[18] = system: primary AML patient cells (S011)
Summary of the method: as §1

[19] = system: primary FL patient cells (S087)
Summary of the method: as §1

For `Cc1sc2c(c1C)C(c1ccc(Cl)cc1)=N[C@@H](CC(=O)Nc1ccc(O)cc1)c1nnc(C)n1-2` [OTX015], the viability ([1]; 0.016 µM) was 1.14, the viability ([1]; 0.08 µM) was 1.12 and the viability ([1]; 0.4 µM) was 1.08. For the same compound, the viability ([1]; 2 µM) was 0.985, the viability ([1]; 10 µM) was 0.965 and the viability ([2]; 0.016 µM) was 1.01. It also gave a viability ([2]; 0.08 µM) of 1.01, a viability ([2]; 0.4 µM) of 0.866 and a viability ([2]; 2 µM) of 0.806. It also gave a viability ([2]; 10 µM) of 0.708, a viability ([3]; 0.016 µM) of 0.983 and a viability ([3]; 0.08 µM) of 0.927. It also gave a viability ([3]; 0.4 µM) of 0.77, a viability ([3]; 2 µM) of 0.52 and a viability ([3]; 10 µM) of 0.405. The viability ([4]; 0.016 µM) was 1.16, the viability ([4]; 0.08 µM) was 1.08 and the viability ([4]; 0.4 µM) was 0.561. For the same compound, the viability ([4]; 2 µM) was 0.335, the viability ([4]; 10 µM) was 0.24 and the viability ([5]; 0.016 µM) was 0.93. It also gave a viability ([5]; 0.08 µM) of 0.894, a viability ([5]; 0.4 µM) of 0.73 and a viability ([5]; 2 µM) of 0.536. The viability ([5]; 10 µM) was 0.408, the viability ([6]; 0.016 µM) was 0.872 and the viability ([6]; 0.08 µM) was 0.674. For the same compound, the viability ([6]; 0.4 µM) was 0.244, the viability ([6]; 2 µM) was 0.116 and the viability ([6]; 10 µM) was 0.0851. The viability ([7]; 0.016 µM) was 0.741, the viability ([7]; 0.08 µM) was 0.478 and the viability ([7]; 0.4 µM) was 0.276. It also gave a viability ([7]; 2 µM) of 0.25, a viability ([7]; 10 µM) of 0.254 and a viability ([8]; 0.016 µM) of 0.861. For the same compound, the viability ([8]; 0.08 µM) was 0.614, the viability ([8]; 0.4 µM) was 0.312 and the viability ([8]; 2 µM) was 0.191. It also gave a viability ([8]; 10 µM) of 0.178, a viability ([9]; 0.016 µM) of 1.11 and a viability ([9]; 0.08 µM) of 0.851. It also gave a viability ([9]; 0.4 µM) of 1, a viability ([9]; 2 µM) of 0.716 and a viability ([9]; 10 µM) of 0.97. For the same compound, the viability ([10]; 0.016 µM) was 1.09, the viability ([10]; 0.08 µM) was 0.875 and the viability ([10]; 0.4 µM) was 0.764. The viability ([10]; 2 µM) was 0.576, the viability ([10]; 10 µM) was 0.591 and the viability ([11]; 0.016 µM) was 0.894. For the same compound, the viability ([11]; 0.08 µM) was 0.848, the viability ([11]; 0.4 µM) was 0.546 and the viability ([11]; 2 µM) was 0.398. It also gave a viability ([11]; 10 µM) of 0.311, a viability ([12]; 0.016 µM) of 1.01 and a viability ([12]; 0.08 µM) of 1.03. For the same compound, the viability ([12]; 0.4 µM) was 0.775, the viability ([12]; 2 µM) was 0.501 and the viability ([12]; 10 µM) was 0.344. The viability ([13]; 0.016 µM) was 1.06, the viability ([13]; 0.08 µM) was 1.15 and the viability ([13]; 0.4 µM) was 0.891. It also gave a viability ([13]; 2 µM) of 0.711, a viability ([13]; 10 µM) of 0.687 and a viability ([14]; 0.016 µM) of 0.988. For the same compound, the viability ([14]; 0.08 µM) was 1.08, the viability ([14]; 0.4 µM) was 0.994 and the viability ([14]; 2 µM) was 0.829. The viability ([14]; 10 µM) was 0.722, the viability ([15]; 0.016 µM) was 1.02 and the viability ([15]; 0.08 µM) was 0.891. The viability ([15]; 0.4 µM) was 0.482, the viability ([15]; 2 µM) was 0.2 and the viability ([15]; 10 µM) was 0.119. The viability ([16]; 0.016 µM) was 0.862, the viability ([16]; 0.08 µM) was 0.726 and the viability ([16]; 0.4 µM) was 0.448. For the same compound, the viability ([16]; 2 µM) was 0.394, the viability ([16]; 10 µM) was 0.325 and the viability ([17]; 0.016 µM) was 1.05. For the same compound, the viability ([17]; 0.08 µM) was 0.942, the viability ([17]; 0.4 µM) was 0.802 and the viability ([17]; 2 µM) was 0.699. The viability ([17]; 10 µM) was 0.6, the viability ([18]; 0.016 µM) was 1 and the viability ([18]; 0.08 µM) was 0.899. For the same compound, the viability ([18]; 0.4 µM) was 0.766, the viability ([18]; 2 µM) was 0.742 and the viability ([18]; 10 µM) was 0.758. For the same compound, the viability ([19]; 0.016 µM) was 1.02, the viability ([19]; 0.08 µM) was 1.01 and the viability ([19]; 0.4 µM) was 0.913. It also gave a viability ([19]; 2 µM) of 0.866 and a viability ([19]; 10 µM) of 0.805.
